Measurements from patent US8728515B2, “Adjuvants for use in vaccination” (Bangor University, priority 2008, dated 2014).

Legend:
C57BL/6 mice = assay: Inflammatory cell infiltration to the airways and lung tissue damage after intratracheal mycolic acid liposomes; type: in vivo; details: liposomes intratracheally, 25 μg mycolic acids/100 μl/mouse, after 48 hours
Protocol: (§1) Female C57BL/6J mice were purchased from Janvier and housed under specific pathogen free conditions in individually ventilated cages and fed ad libitum. Mice were 8-12 weeks old at the start of experiments.
(§2) Briefly, the compounds were mixed with phosphatidylcholine (Sigma) in chloroform. The chloroform was evaporated and the lipids recovered in sterile saline. After ultrasound sonication and vortexing, samples of 25 μg mycolic acids/100 μl/mouse were administered intratracheally. A liposome control was prepared similarly, but without the addition of any mycolic acid compound.
In order to be considered safe for human administration, compounds should preferably cause as little local inflammation or resulting tissue changes as possible.
After 48 hours, mice were sacrificed and a broncho-alveolar lavage (BAL) was performed to measure the airway cell types and numbers by flowcytometry. Increased cell numbers and the appearance of granulocytes (mainly neutrophils) in the BAL-fluid are indicative for cell recruitment to the airways as result of an inflammatory reaction.
Lavaged lungs were ectomised to allow for histo-pathological examination of the lung tissue. A haematoxylin and eosin staining of the paraffin lung sections was followed by a thorough examination by a skilled pathologist who scored the sections according to the following criteria in a double-blinded manner: […]

airway CD11c+ cells = assay: Gene transcription profiling of airway CD11c+ cells (RT-qPCR on broncho-alveolar lavage cells after intratracheal liposomes); type: in vivo, mouse; details: liposomes intratracheally, after 48 hours
Protocol: as §1, §2
Airway CD11c^+ cells include alveolar macrophages and dendritic cells, which are professional phagocytes and the most important cell types in the early recognition of non-self threats to the airways. Next to mounting an immediate appropriate innate immune response to these threats, CD11c^+ cells alert and instruct adaptive immune responses by means of 3 different signals: antigen-presentation, surface expression of T-cell co-stimulatory molecules and secretion of instruction cytokines. Whereas dendritic cells migrate to the draining lymph nodes in order to initiate a peripheral antigen-specific immune response, alveolar macrophages remain in the airways to further control local inflammation, but also to locally attract and orchestrate the acquired immune response by lymphocytes.
In order for a locally applied vaccine to be effective, safe adjuvants that give the appropriate signal to CD11c^+ cells are needed to both increase the immunogenicity of the vaccine and direct the type of the acquired immune response. […] After 48 hours, the mice were sacrificed and broncho-alveolar lavage performed to measure the CD11c^+-cell gene transcription by RT-qPCR.

With `CCCCCCCCCCCCCCCCCCCCCCCC[C@@H](C(=O)O)[C@H](O)CCCCCCCCCCCCCCCC[C@H]1C[C@@H]1[C@@H](C)CCCCCCCCCCCCCCCCCCC(=O)C(C)CCCCCCCCCCCCCCCCCC` (some centres unmarked) [Compound 4] the “lung tissue changes (histo-pathological examination of lung sections)” value (C57BL/6 mice) was “did not cause any significant lung tissue changes”.

With `CCCCCCCCCCCCCCCCCCCCCCCC[C@@H](C(=O)O)[C@H](O)CCCCCCCCCCCCCCC[C@@H]1C[C@@H]1CCCCCCCCCCCCCCCCCCC(=O)[C@@H](C)CCCCCCCCCCCCCCCCCC` (single isomer, unassigned) [Example 3] the melting point was 66 to 68 °C.

In the case of `CCCCCCCCCCCCCCCCCCCCCCCC[C@@H](C(=O)O)[C@H](O)CCCCCCCCCCCCCCCCC[C@@H]1CC1CCCCCCCCCCCCCCCC[C@@H](OC)[C@@H](C)CCCCCCCCCCCCCCCCCC` (some centres unmarked) [Compound 6], the “type of macrophage activation (iNOS = classical, Fizz1 = alternative marker)” value (airway CD11c+ cells; alveolar macrophages) is reported as “mixed type of activation”, the “KC (CXCL1) expression” value (airway CD11c+ cells) is reported as “increased” and the “MCP-1 (CCL2) expression” value (airway CD11c+ cells) is reported as “enhance MCP-1 expression even to a greater extend than crude-MA”. For the same compound, the “expression of IL-12p40” value (airway CD11c+ cells) was “strongly stimulate”, the “induction of expression of IL-10” value (airway CD11c+ cells) was “maintained” and the “expression of the inflammatory cytokines TNF-alpha and IL-6” value (airway CD11c+ cells; compared with crude-MA) was “less pronounced or absent”.
